The text below walks through data of publication PMC7240968, “Synthesis and Biological Evaluation of Imidazo[2,1-b]Thiazole based Sulfonyl Piperazines as Novel Carbonic Anhydrase II Inhibitors” (Metabolites, 2020).

The target in data set [1] is T1, hCA I (Homo sapiens, UniProt P00915).
T1 construct: made in house
The data set is described as follows: stopped flow CO2 hydrase assay, hCA I. Type of data set: biochemical. The note with it: recombinant cytosolic isoform; mean from 3 different assays, errors ±5–10%. The procedure:
(§1) The newly synthesized imidazo[2,1-b]thiazole-sulfonyl piperazines (9aa-ee) were screened for their CA inhibition activity against cytosolic (hCA I, hCA II) and the tumor associated (hCA IX, hCAXII) isoforms by a stopped flow CO2 hydrase assay.
(§2) The inhibition assay of selected CA isozymes was performed using SX.18V-R Applied Photophysics (Oxford, UK) stopped flow instrument. 10 mM Hepes (pH 7.4) as a buffer, with Phenol Red (at a concentration of 0.2 mM) as an indicator, 0.1M Na2SO4 or NaClO4 (To maintain the constant ionic strength; these anions are not inhibitory in the used concentration), following the CA-catalyzed CO2 hydration reaction for a period of 5–10 s. […] Stock solutions of inhibitors were prepared at a concentration of 10 mM (in DMSO-water 1:1 v/v) and dilutions up to 0.01 nM done with the assay buffer mentioned above. […] Inhibitor and enzyme solutions were pre-incubated together for 10 min at room temperature prior to assay, in order to allow for the formation of the E-I complex. […] The inhibition constants were obtained by non-linear least square methods using the Cheng-Prusoff equation, as reported earlier, [24, 25] and represent the mean from at least three different determinations. All CA isozymes used here were recombinant proteins obtained as reported earlier by our group.

Data set [2] has as its target T2, hCA II (Homo sapiens, UniProt P00918).
T2 construct: made in house
The data set is described as follows: stopped flow CO2 hydrase assay, hCA II. Type of data set: biochemical. The note with it: recombinant cytosolic isoform; mean from 3 different assays, errors ±5–10%. The procedure: as §1, §2

Data set [3] concerns the target T3, hCA IX (Homo sapiens, UniProt Q16790).
T3 construct: made in house
The data set is described as follows: stopped flow CO2 hydrase assay, hCA IX. Type of data set: biochemical. The note with it: recombinant tumor associated isoform; mean from 3 different assays, errors ±5–10%. The procedure: as §1, §2

Data set [4] addresses T4, hCA XII (Homo sapiens, UniProt O43570).
T4 construct: made in house
The data set is described as follows: stopped flow CO2 hydrase assay, hCA XII. Type of data set: biochemical. The note with it: recombinant tumor associated isoform; mean from 3 different assays, errors ±5–10%. The procedure: as §1, §2

Usually melting point stands for the temperature of the solid-liquid transition. One may read the Ki as the equilibrium dissociation constant of an inhibitor or competing ligand from its target.

T1 sequence (P00915 whole entry): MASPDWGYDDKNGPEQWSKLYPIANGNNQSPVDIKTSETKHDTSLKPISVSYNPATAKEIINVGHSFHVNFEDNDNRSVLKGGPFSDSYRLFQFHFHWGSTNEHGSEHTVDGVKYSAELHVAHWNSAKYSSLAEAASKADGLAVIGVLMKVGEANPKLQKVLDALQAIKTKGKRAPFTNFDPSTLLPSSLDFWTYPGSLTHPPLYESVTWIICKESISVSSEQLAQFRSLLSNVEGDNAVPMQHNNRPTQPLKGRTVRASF
T4 sequence (O43570 25-354): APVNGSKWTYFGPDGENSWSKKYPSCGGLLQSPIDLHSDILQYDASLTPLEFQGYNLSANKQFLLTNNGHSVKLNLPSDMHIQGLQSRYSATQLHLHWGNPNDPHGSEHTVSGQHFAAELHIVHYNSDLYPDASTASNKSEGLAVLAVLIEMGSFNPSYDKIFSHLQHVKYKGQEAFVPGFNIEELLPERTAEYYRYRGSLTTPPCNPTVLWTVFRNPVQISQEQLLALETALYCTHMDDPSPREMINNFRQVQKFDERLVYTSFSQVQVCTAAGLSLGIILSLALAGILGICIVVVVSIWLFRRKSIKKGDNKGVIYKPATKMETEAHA

`Cc1ccc(-c2cnc3sc(C(=O)N4CCN(S(=O)(=O)c5ccc(C(C)(C)C)cc5)CC4)cn23)cc1` [Compound 9bd, (4-((4-(Tert-butyl)phenyl)sulfonyl)piperazin-1-yl)(5-(p-tolyl)imidazo[2,1-b]thiazol-2-yl)methanone] displayed a melting point of 222 to 224 °C.

In the case of “(4-((4-(Tert-butyl)phenyl)sulfonyl)piperazin-1-yl)(5-(4-chlorophenyl)imidazo[2,1-b]thiazol-2-yl)methanone [Compound 9ce]”, the Ki was > 100 µM in data set [1], 62.1 µM in data set [2], > 100 µM in data set [3] and > 100 µM in data set [4].

On to “(4-((4-(Tert-butyl)phenyl)sulfonyl)piperazin-1-yl)(5-(4-fluorophenyl)imidazo[2,1-b]thiazol-2-yl)methanone [Compound 9de]”, for which the Ki in data set [1], in data set [2], in data set [3] and in data set [4] was > 100 µM in each case.

As for “(4-((4-Chlorophenyl)sulfonyl)piperazin-1-yl)(5-(4-fluorophenyl)imidazo[2,1-b]thiazol-2-yl)methanone [Compound 9dc]”, the Ki in data set [1] was > 100 µM; in data set [2], 98.2 µM; in data set [3] it was > 100 µM; in data set [4], > 100 µM.

For the molecule “(4-((4-Chlorophenyl)sulfonyl)piperazin-1-yl)(5-phenylimidazo[2,1-b]thiazol-2-yl)methanone [Compound 9ec]”, the inhibitory constant (Ki) in data set [1], in data set [2], in data set [3] and in data set [4] was > 100 µM throughout.

On to “(4-((4-Methoxyphenyl)sulfonyl)piperazin-1-yl)(5-(p-tolyl)imidazo[2,1-b]thiazol-2-yl)methanone [Compound 9ba]”, for which the inhibitory constant (Ki) in data set [1], in data set [2], in data set [3] and in data set [4] was > 100 µM throughout.

For the molecule “(4-((4-Methoxyphenyl)sulfonyl)piperazin-1-yl)(5-phenylimidazo[2,1-b]thiazol-2-yl)methanone [Compound 9ea]”, the Ki in data set [1], in data set [2], in data set [3] and in data set [4] was > 100 µM each time.

As for “(5-(4-Chlorophenyl)imidazo[2,1-b]thiazol-2-yl)(4-((4-chlorophenyl)sulfonyl)piperazin-1-yl)methanone [Compound 9cc]”, the Ki in data set [1] was > 100 µM; in data set [2], 57.8 µM; in data set [3] it was > 100 µM; in data set [4], > 100 µM.

Consider “(5-(4-Chlorophenyl)imidazo[2,1-b]thiazol-2-yl)(4-((4-methoxyphenyl)sulfonyl)piperazin-1-yl)methanone [Compound 9ca]”, for which the Ki was > 100 µM in data set [1], 79.9 µM in data set [2], > 100 µM in data set [3] and > 100 µM in data set [4].

“(5-(4-Chlorophenyl)imidazo[2,1-b]thiazol-2-yl)(4-(phenylsulfonyl)piperazin-1-yl)methanone [Compound 9cd]”: the Ki is > 100 µM in data set [1], 71.2 µM in data set [2], > 100 µM in data set [3] and > 100 µM in data set [4].

For the molecule “(5-(4-Chlorophenyl)imidazo[2,1-b]thiazol-2-yl)(4-tosylpiperazin-1-yl)methanone [Compound 9cb]”, the Ki in data set [1], in data set [2], in data set [3] and in data set [4] was > 100 µM throughout.

For “(5-(4-Fluorophenyl)imidazo[2,1-b]thiazol-2-yl)(4-((4-methoxyphenyl)sulfonyl)piperazin-1-yl)methanone [Compound 9da]”, the Ki in data set [1] is > 100 µM; in data set [2], 67.9 µM; in data set [3], > 100 µM; in data set [4], > 100 µM.

For “(5-(4-Fluorophenyl)imidazo[2,1-b]thiazol-2-yl)(4-(phenylsulfonyl)piperazin-1-yl)methanone [Compound 9dd]”, the inhibition constant Ki in data set [1], in data set [2], in data set [3] and in data set [4] was > 100 µM throughout.

As to “(5-(4-Fluorophenyl)imidazo[2,1-b]thiazol-2-yl)(4-tosylpiperazin-1-yl)methanone [Compound 9db]”, the Ki in data set [1], in data set [2], in data set [3] and in data set [4] was > 100 µM throughout.

Take “(5-(4-Methoxyphenyl)imidazo[2,1-b]thiazol-2-yl)(4-((4-methoxyphenyl)sulfonyl)piperazin-1-yl)methanone [Compound 9aa]”: the Ki in data set [1], in data set [2], in data set [3] and in data set [4] was > 100 µM in each case.

Take “(5-(4-Methoxyphenyl)imidazo[2,1-b]thiazol-2-yl)(4-(phenylsulfonyl)piperazin-1-yl)methanone [Compound 9ad]”: the Ki in data set [1], in data set [2], in data set [3] and in data set [4] was > 100 µM each time.

Consider “(5-(p-Tolyl)imidazo[2,1-b]thiazol-2-yl)(4-tosylpiperazin-1-yl)methanone [Compound 9bb]”, for which the Ki in data set [1] was > 100 µM; in data set [2] it was 76.4 µM; in data set [3], > 100 µM; in data set [4], > 100 µM.

Consider “(5-Phenylimidazo[2,1-b]thiazol-2-yl)(4-(phenylsulfonyl)piperazin-1-yl)methanone [Compound 9ed]”, for which the Ki in data set [1], in data set [2], in data set [3] and in data set [4] was > 100 µM in each case.

As for “(5-Phenylimidazo[2,1-b]thiazol-2-yl)(4-tosylpiperazin-1-yl)methanone [Compound 9eb]”, the Ki in data set [1], in data set [2], in data set [3] and in data set [4] was > 100 µM throughout.
